Legend:
[1] = fenbufen analogs, literature; cited from earlier work
[2] = target: T1, MMP-9 (Gelatinase-B, 92 kDa) (Homo sapiens, UniProt P14780); test: Thiopeptilide MMP-9 Inhibition Assay; assay type: biochemical; settings: x (n): average IC50 of n separate determinations
T1 construct: from tissue; host or cells: human polymorphonuclear leukocytes from fresh whole blood (New York Blood Center), PMA-stimulated supernatant, purified
Experimental: MMP-9 was isolated modifying the previously described procedures of Hibbs et al (J. Biol. Chem., 260, 2493-2500, 1984) and Wilhelm et al (J. Biol. Chem., 264, 17213-17221, 1989). Briefly, polymorphonuclear leukocytes (PMN) preparations were isolated as described above from 3 or more units of freshly drawn whole blood obtained from the New York Blood Center (N.Y., N.Y.). Cells were resuspended in phosphate buffered saline (PBS) containing 100 ng/ml phorbol myristate acetate (PMA) in the presence of 50 mM di-isopropylfluorophospate (DFP), 1 μg/ml leupeptin and aprotinin, and 1 mg/ml catalase for 1 hr at 37° C. Supernatants were collected by centrifugation (300×g) and the samples were frozen at -70° C. All chromatographic methods were performed at 4° C. Thawed samples were concentrated 5-fold using an Amicon chamber equipped with a YM-10 membrane. The concentrate was pressure dialyzed against 0.02M Tris-HCl, 0.1M NaCl, 1 mM CaCl2, 1 μM ZnCl2, 0.001 % Brij-35, 0.02% sodium azide (NaN3), pH 7.5 and applied to DEAE ion exchange chromatography resin which was previously equilibrated with the same buffer at a flow rate of 0.4 ml/min. The column was extensively washed with the same buffer and gelatinase was eluted as 4 ml fractions from the column with 0.02M Tris-HCl, 0.5M NaCl, 1 mM CaCl2, 1 μM ZnCl2, 0.001% Brij-35, 0.02% NaN3, pH 7.5. Gelatinase containing fractions were observed by gelatin zymography (see below), loaded onto a gelatin agarose affinity resin and washed with the same buffer. Gelatinase activity was eluted at a flow rate of 1 ml/min from the column as 1 ml fractions with 0.02M Tris-HCl, 1M NaCl, 1 mM CaCl2, 1 μmM ZnCl2, 0.001% Brij-35, 0.02% NaN3, pH 7.5 containing 10% dimethyl sulfoxide (DMSO). The fractions containing gelatinase activity were pooled and dialyzed against 0.005M Tris-HCl, 5 mM NaCl, 0.5 mM CaCl2, 0.1 μM ZnCl2, 0.001% Brij-35, pH 7.4. The protein content associated with material was determined with a micro-BCA assay (Pierce, Rockford, Ill.), lyophilized and reconstituted to a desired working concentration (100 μg/ml).
Progelatinase (10 μg/ml) isolated from human PMNs (described above) was activated with 1 mM 4-aminophenylmercuric acetate (APMA) in 50 mM Tris-HCl, 200 mM NaCl, 5 mM CaCl2, 0.001% Brij-35, pH 7.6 at 37° C. for 16 hr. The activated enzyme was dialyzed against the above buffer to remove APMA. The thiopeptolide spectrophotometric ( Weingarten, H., Feder, J., Anal. Biochem., 147, 437-440, 1985) substrate hydrolysis assay was modified to a micro-assay format. Spectrophotometric analysis of MMP-9 activity required a 1000-fold dilution of activated MMP-9 (10 ng/ml, 0.14 nM) in assay buffer comprised of 50 mM 4-(2-hydroxyethyl)1-piperazine ethane sulfonic acid (HEPES), 0.15M NaCl, 10 mM CaCl2, 0.001% Brij-35, pH 6.5 between 100 and 1000-fold for enzyme assays. Reaction mixtures for inhibitor studies contained 1 mM Ac-Pro-Leu-Gly-S-Leu-Leu-Gly-o-ethyl thiopeptolide substrate dissolved in HEPES assay buffer pH 6.5, along with 0.5 mM 5,5'-dithio-bis-(nitrobenzoicacid), drug concentrations ranging from 0.5 nM to 5 μM and activated enzyme (10-100 ng) in a total volume of 130 μl. The hydrolysis of substrate was monitored at 405 nm using an automated plate reader (Molecular Devices, Menlo Park, Calif.). Enzyme mediated substrate hydrolysis was corrected for non-enzymatic hydrolysis of the substrate by the subtraction of values from control samples incubated in the absence of enzyme. Drug efficacy was reported as the percent inhibition of enzyme activity calculated as:
(Control Values-Treated Values)/Control Values×100
Two way analysis of variance was used to determine significance between individual test groups.
(§1) All IC50 values are expressed as nM. When "I=x %" is shown, x presents the % inhibition at 5 μM. When "x (n)" is shown, x is the erage IC50 value of n separate determinations.

[3] = target: T2, MMP-3 (recombinant stromelysin) (Homo sapiens, UniProt P08254); test: Secondary P218 Quenched fluorescence Assay for MMP-3 Inhibition; assay type: biochemical
T2 construct: Expression and Purification of Recombinant Truncated Prostromelysin (MMP-3); made in house
Source text: Truncated Prostromelysin-257 was expressed in a soluble form in E.coli as described by Marcy et al., Biochemistry, 30, 6476-6483, 1991. Soluble truncated prostromelysin was purified by a modification of the monoclonal antibody affinity chromatography method described by Housley et al., J. Biol. Chem., 268, 4481-87, 1993.
This assay was originally described by Knight et al., FEBS Letters, 296, 263-266, 1992, for a related substrate. The assay is run continuously in a 3.Oml cuvette using a Perkin-Elmer LS 50 B Spectrofluorimeter at 25° C. in a final volume of 2.0 mls. P218 substrate (10 mM) in 100% DMSO is diluted to a final concentration of 2.0 micromolar (μM) into assay buffer: 50 mM MES, pH 6.5 containing 150 mM NaCl, 10 mM CaCl2, 0.005% Brij-35, and 1%(v/v) DMSO. Test compounds(10 mM) in DMSO are diluted in assay buffer at an initial concentration of 10 to 100 micromolar. […] The reaction is initiated by the addition of recombinant stromelysin (MMP-3) at a final concentration of 1.0 nM. Upon peptide cleavage, the fluorescent MCA group was detected using an excitation wavelength of 328 nanometers and an emission wavelength of 393 nanometers. The assay is linear from 0.2 to 5 nM MMP-3 concentration and percent inhibition is calculated as described above for the primary thiopeptilide assay and IC50 values are determined by a linear regression analysis of percent inhibition versus log drug concentration. The peptide sequence of the MCA substrate, hereinafter esignated P218, is shown below:
MCA-Pro-Lys-Pro-Leu-Ala-Leu-DPA-Ala-Arg-NH2 P218
as §1

[4] = target: T3, MMP-3 (recombinant truncated stromelysin) (Homo sapiens, UniProt P08254); test: Primary Thiopeptilide MMP-3 Inhibition Assay; assay type: biochemical; settings: x (n): average IC50 of n separate determinations
T3 construct: made in house; host or cells: E. coli
T3 sequence (P08254 100-274 limits assumed): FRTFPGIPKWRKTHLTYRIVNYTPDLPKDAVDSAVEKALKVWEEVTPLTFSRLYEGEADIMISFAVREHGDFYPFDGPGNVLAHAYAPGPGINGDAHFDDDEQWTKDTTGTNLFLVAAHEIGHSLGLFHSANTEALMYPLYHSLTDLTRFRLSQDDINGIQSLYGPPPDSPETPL
Experimental: Reaction mixtures for inhibitor studies contained 1 mM Ac-Pro-Leu-Gly-S-Leu-Leu-Gly-o-ethyl thiopeptolide substrate dissolved in HEPES assay buffer pH 6.5, along with 0.5 mM 5,5'-dithio-bis-(nitrobenzoicacid), drug concentrations ranging from 0.5 nM to 5 μM and activated enzyme (10-100 ng) in a total volume of 130 μl. […] Enzyme mediated substrate hydrolysis was corrected for non-enzymatic hydrolysis of the substrate by the subtraction of values from control samples incubated in the absence of enzyme. Drug efficacy was reported as the percent inhibition of enzyme activity calculated as:
Enzyme: recombinant stromelysin expressed in E.coli and purified as described above. […] The protocols for the assay of compounds as stromelysin inhibitors was the same as that used for MMP-9 except that the assay buffer was 50 mM MES, pH 6.5 containing 150mM NaCl, 10 mM CaCl2, 0.005% Brij, and 1% DMSO.
All IC50 values are expressed as nM. […] When "x (n)" is shown, x is the erage IC50 value of n separate determinations.

T2 sequence (P08254 100-274 limits assumed): as above
T1 sequence (P14780 107-707 limits assumed): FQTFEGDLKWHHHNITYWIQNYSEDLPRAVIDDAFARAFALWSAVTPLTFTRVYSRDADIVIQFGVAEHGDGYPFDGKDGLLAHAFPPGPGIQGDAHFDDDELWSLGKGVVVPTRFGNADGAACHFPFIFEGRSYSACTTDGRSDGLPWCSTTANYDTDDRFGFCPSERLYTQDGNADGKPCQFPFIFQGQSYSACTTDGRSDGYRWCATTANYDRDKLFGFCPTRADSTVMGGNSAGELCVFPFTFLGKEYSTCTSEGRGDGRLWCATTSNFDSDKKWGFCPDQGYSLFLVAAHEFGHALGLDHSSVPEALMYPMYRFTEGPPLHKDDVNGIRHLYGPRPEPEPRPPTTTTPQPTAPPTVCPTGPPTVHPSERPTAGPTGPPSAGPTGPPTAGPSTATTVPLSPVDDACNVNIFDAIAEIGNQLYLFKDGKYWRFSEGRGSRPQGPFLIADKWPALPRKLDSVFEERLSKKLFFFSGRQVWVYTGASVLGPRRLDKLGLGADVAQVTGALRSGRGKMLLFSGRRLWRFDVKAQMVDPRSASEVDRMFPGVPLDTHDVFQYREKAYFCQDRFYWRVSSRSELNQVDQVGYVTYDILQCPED

Compound: CC(CC(=O)c1ccc(-c2ccccc2)cc1)C(=O)O (stereo not shown) [XLVIII]
- activity in words [1]: inactive

Compound: O=C(O)CC(C(=O)c1ccc(-c2ccccc2)cc1)c1ccccc1 (stereo not shown) [LXXVII]
- activity in words [1]: inactive

Compound: O=C(O)[C@@H]1[C@@H](C(=O)c2ccc(-c3ccc(Cl)cc3)cc2)CC[C@H]1Sc1ccccc1 (single isomer, unassigned) [Example 211, Cyclopentanecarboxylic acid, 2-[(4'-chloro[1,1'-biphenyl]-4-yl)carbonyl]-5-(phenylthio)-, [1S-(1α,2β,5β)]-]
- IC50 [2]: 25 nM
- IC50 ([3]; P218 substrate, x (n): average IC50 of n separate determinations, read-out: MMP-3 Fluorogenic IC50): 12 nM
- IC50 [4]: 26 nM

Compound: MCA-Pro-Lys-Pro-Leu-Ala-Leu-DPA-Ala-Arg-NH2 [Example P218, reference compound]
- cat/Km value of substrate for MMP-3 ([3]; pH 6.5): 56,000 M^-1 sec^-1
- Km ([3]; pH 6.5, read-out: Km of substrate for MMP-3): 16 µM
